# Experimental data reported in patent publication US20250171430A1, “PYRAZOLYL COMPOUNDS AS KV7 CHANNEL ACTIVATORS” (Biohaven Therapeutics Ltd., priority 2022, published 2025).
# Target: T1, Kv7.2/7.3 (Homo sapiens, UniProt O43525+O43526)
# T1 construct: Kv7.2 tetracycline-induced, Kv7.3 constitutive
# Test: Kv7.2/7.3 Activation Assay (Thallium Flux Assay)
# Type: cell-based
# Details: hKV7.2/7.3 cell line; test compound at single concentration of 10 μM; fluorescence at 90 sec normalized to positive control (retigabine, 30 μM)
# In short: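 Single-point activity at 10 μM (0.1% DMSO, HEPES-buffered saline, pH 7.4) was scored from fluorescence at 90 s relative to 30 μM retigabine. Categories were none <0.15, moderate 0.15-0.7 and high >0.7. Thallium influx after stimulus addition was followed with FluxOR II Green dye in hKv7.2/7.3 cells, Kv7.2 expressed under overnight tetracycline (10 ng/mL) induction.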
row,Kv7.2/7.3 Activity,SMILES
1,++ (“++” High Activity ≥ 0.7),"Cn1nc(NC(=O)OC2CC(F)(F)C2)c(C2CCC2)c1C1CCC(F)(F)CC1 [Compound 292, 3,3-difluorocyclobutyl (4-cyclobutyl-5-(4,4-difluorocyclohexyl)-1-methyl-1H-pyrazol-3-yl)carbamate]"
2,++ (“++” High Activity ≥ 0.7),"Cn1nc(NC(=O)NCC(F)(F)F)c(C2CCC2)c1C1CC(F)(F)C1 [Compound 293, 1-(4-cyclobutyl-5-(3,3-difluorocyclobutyl)-1-methyl-1H-pyrazol-3-yl)-3-(2,2,2-trifluoroethyl)urea]"
3,++ (“++” High Activity ≥ 0.7),"Cn1nc(NC(=O)NCC(C)(C)C)c(C2CCC2)c1C1CC(F)(F)C1 [Compound 294, 1-(4-cyclobutyl-5-(3,3-difluorocyclobutyl)-1-methyl-1H-pyrazol-3-yl)-3-neopentylurea]"
4,++ (“++” High Activity ≥ 0.7),"Cn1nc(NC(=O)OC2CCC2)c(C2CCC2)c1C1CC(F)(F)C1 [Compound 295, cyclobutyl (4-cyclobutyl-5-(3,3-difluorocyclobutyl)-1-methyl-1H-pyrazol-3-yl)carbamate]"
5,++ (“++” High Activity ≥ 0.7),"Cn1nc(NC(=O)NCC(F)F)c(C2CCC2)c1C1CC(F)(F)C1 [Compound 296, 1-(4-cyclobutyl-5-(3,3-difluorocyclobutyl)-1-methyl-1H-pyrazol-3-yl)-3-(2,2-difluoroethyl)urea]"
6,++ (“++” High Activity ≥ 0.7),"Cn1nc(NC(=O)NCC2CC(F)(F)C2)c(C2CCC2)c1C1CC(F)(F)C1 [Compound 297, 1-(4-cyclobutyl-5-(3,3-difluorocyclobutyl)-1-methyl-1H-pyrazol-3-yl)-3-((3,3-difluorocyclobutyl)methyl)urea]"
7,− (“−” No Activity < 0.15),"Cn1nc(NC(=O)[C@H]2CC2(F)F)c(C2CCC2)c1-c1cnc(C(F)(F)F)s1 [Compound 298, (R)-N-(4-cyclobutyl-1-methyl-5-(2-(trifluoromethyl)thiazol-5-yl)-1H-pyrazol-3-yl)-2,2-difluorocyclopropane-1-carboxamide]"
